Experimental data from PMC2248166, “Quantitative peptide binding motifs for 19 human and mouse MHC class I molecules derived using positional scanning combinatorial peptide libraries” (Immunome Research, 2008).
Where a SMILES comes first, the peptide text is derived from it.

Biological target: HLA B*1503 (Homo sapiens, UniProt P01889, A329T/A93T/A95T/C349S/D201E/D98Y/E187L/E204Q/K202T/N87E/Q94N/R155S/R180L/S121R/S35A/V306I/V36M/Y140S/Y91S)
Test: biochemical
Type: binding

CC[C@H](C)[C@H](N)C(=O)N[C@@H](CCCCN)C(=O)N[C@@H](CO)C(=O)N[C@@H](Cc1ccc(O)cc1)C(=O)N[C@H](C(=O)N[C@H](C(=O)N[C@@H](CCCNC(=N)N)C(=O)N[C@H](C(=O)N[C@@H](Cc1ccccc1)C(=O)O)C(C)C)[C@@H](C)CC)[C@@H](C)O [3102.1137] (H-IKSYTIRVF-OH)
IC50: 1.6 nM

CC[C@H](C)[C@H](NC(=O)[C@H](CCSC)NC(=O)[C@H](CC(C)C)NC(=O)[C@@H]1CCCN1C(=O)[C@H](CCCNC(=N)N)NC(=O)[C@H](Cc1ccccc1)NC(=O)[C@H](CCCCN)NC(=O)[C@@H](N)CCCCN)C(=O)N[C@@H](Cc1ccccc1)C(=O)O [3102.1138] (H-KKFRPLMIF-OH)
IC50: 0.17 nM

CC(C)C[C@H](NC(=O)[C@H](Cc1ccccc1)NC(=O)[C@H](CCCNC(=N)N)NC(=O)[C@@H](N)CC(C)C)C(=O)N[C@@H](CCC(=O)O)C(=O)N[C@@H](CCCCN)C(=O)N[C@H](C(=O)N[C@@H](CO)C(=O)N[C@@H](Cc1ccccc1)C(=O)O)[C@@H](C)O [3102.1139] (H-LRFLEKTSF-OH)
IC50: 2.2 nM

CC[C@H](C)[C@H](NC(=O)[C@@H](NC(=O)[C@H](CCSC)NC(=O)[C@@H](N)CO)C(C)C)C(=O)N[C@@H](CO)C(=O)N[C@@H](CC(C)C)C(=O)N[C@@H](CC(C)C)C(=O)N[C@@H](CO)C(=O)N[C@@H](CCSC)C(=O)O [3102.1140] (H-SMVISLLSM-OH)
IC50: 8 nM

CC[C@H](C)[C@H](N)C(=O)N[C@@H](CC(C)C)C(=O)N[C@@H](Cc1c[nH]cn1)C(=O)N[C@@H](CO)C(=O)N[C@@H](CC(=O)O)C(=O)N[C@@H](Cc1ccc(O)cc1)C(=O)N[C@@H](CCC(N)=O)C(=O)N[C@@H](CC(C)C)C(=O)N[C@@H](Cc1ccccc1)C(=O)O [3102.1141] (H-ILHSDYQLF-OH)
IC50: 2.4 nM

CSCC[C@H](NC(=O)[C@H](CCCCN)NC(=O)[C@@H](N)CCCCN)C(=O)N[C@@H](CCC(N)=O)C(=O)N[C@@H](CO)C(=O)N[C@@H](Cc1ccc(O)cc1)C(=O)N[C@@H](CC(N)=O)C(=O)N[C@@H](CO)C(=O)N[C@H](C(=O)O)C(C)C [3102.1143] (H-KKMQSYNSV-OH)
IC50: 2.8 nM

CC[C@H](C)[C@H](NC(=O)[C@H](CO)NC(=O)[C@H](Cc1ccc(O)cc1)NC(=O)[C@@H](NC(=O)[C@H](C)NC(=O)[C@H](Cc1c[nH]cn1)NC(=O)[C@@H](N)CC(C)C)C(C)C)C(=O)N[C@H](C(=O)N[C@@H](Cc1ccccc1)C(=O)O)C(C)C [3102.1145] (H-LHAVYSIVF-OH)
IC50: 8.8 nM

CC[C@H](C)[C@H](N)C(=O)N[C@@H](CCCCN)C(=O)N[C@@H](CCC(=O)O)C(=O)N[C@@H](CC(N)=O)C(=O)N[C@@H](CO)C(=O)N[C@H](C(=O)N[C@@H](Cc1ccc(O)cc1)C(=O)N[C@@H](CO)C(=O)N[C@@H](Cc1ccccc1)C(=O)O)[C@@H](C)CC [3102.1146] (H-IKENSIYSF-OH)
IC50: 1.5 nM

CC[C@H](C)[C@H](NC(=O)[C@H](CO)NC(=O)[C@H](CO)NC(=O)[C@H](CO)NC(=O)[C@H](Cc1ccc(O)cc1)NC(=O)[C@H](C)NC(=O)[C@H](CC(C)C)NC(=O)[C@@H](N)C(C)C)C(=O)N[C@@H](Cc1ccccc1)C(=O)O [3102.1150] (H-VLAYSSSIF-OH)
IC50: 5.4 nM

CC[C@H](C)[C@H](N)C(=O)N[C@@H](Cc1c[nH]cn1)C(=O)N[C@H](C(=O)N1CCC[C@H]1C(=O)N[C@@H](CCC(N)=O)C(=O)N[C@@H](CO)C(=O)N[C@@H](CCC(N)=O)C(=O)N[C@@H](CC(C)C)C(=O)N[C@@H](Cc1ccccc1)C(=O)O)[C@@H](C)CC [3102.1155] (H-IHIPQSQLF-OH)
IC50: 5.5 nM

CC[C@H](C)[C@H](NC(=O)[C@H](CO)NC(=O)[C@@H](N)Cc1ccccc1)C(=O)N[C@@H](CC(C)C)C(=O)N[C@@H](Cc1ccccc1)C(=O)N[C@@H](CO)C(=O)N[C@@H](CC(N)=O)C(=O)N[C@@H](CC(N)=O)C(=O)N[C@@H](Cc1ccccc1)C(=O)O [3102.1156] (H-FSILFSNNF-OH)
IC50: 30 nM

CC[C@H](C)[C@H](N)C(=O)N[C@@H](CCC(N)=O)C(=O)N[C@@H](Cc1ccccc1)C(=O)N[C@@H](CCSC)C(=O)N[C@@H](Cc1c[nH]cn1)C(=O)N[C@@H](CCC(=O)O)C(=O)N[C@@H](CCC(N)=O)C(=O)NCC(=O)N[C@@H](Cc1ccc(O)cc1)C(=O)O [3102.1159] (H-IQFMHEQGY-OH)
IC50: 3.7 nM

CSCC[C@H](NC(=O)[C@@H](N)[C@@H](C)O)C(=O)N[C@H](C(=O)N[C@@H](CC(N)=O)C(=O)N[C@@H](CO)C(=O)N[C@@H](CC(C)C)C(=O)N[C@H](C(=O)N[C@@H](Cc1ccc(O)cc1)C(=O)N[C@@H](Cc1ccccc1)C(=O)O)[C@@H](C)O)C(C)C [3102.1160] (H-TMVNSLTYF-OH)
IC50: 0.13 nM

CC(C)C[C@H](NC(=O)[C@@H](N)CCCCN)C(=O)N[C@H](C(=O)N[C@@H](CO)C(=O)N[C@H](C(=O)N[C@@H](CCC(=O)O)C(=O)N[C@H](C(=O)N[C@@H](CO)C(=O)N[C@@H](Cc1ccccc1)C(=O)O)[C@@H](C)O)[C@@H](C)O)[C@@H](C)O [3102.1165] (H-KLTSTETSF-OH)
IC50: 25 nM

CC[C@H](C)[C@H](NC(=O)[C@@H](NC(=O)[C@H](C)NC(=O)[C@H](CS)NC(=O)[C@H](CCCNC(=N)N)NC(=O)[C@@H](NC(=O)[C@@H](N)Cc1ccccc1)[C@@H](C)O)C(C)C)C(=O)N1CCC[C@H]1C(=O)N[C@@H](Cc1ccccc1)C(=O)O [3102.1166] (H-FTRCAVIPF-OH)
IC50: 5.4 nM

CC(C)C[C@H](NC(=O)[C@H](Cc1c[nH]c2ccccc12)NC(=O)[C@H](CCCCN)NC(=O)[C@H](C)NC(=O)[C@H](CCCCN)NC(=O)[C@@H](N)Cc1ccccc1)C(=O)N[C@H](C(=O)N1CCC[C@H]1C(=O)N[C@@H](Cc1ccccc1)C(=O)O)[C@@H](C)O [3102.1174] (H-FKAKWLTPF-OH)
IC50: 0.073 nM

NCCCC[C@H](NC(=O)[C@H](CC(=O)O)NC(=O)[C@H](CC(N)=O)NC(=O)[C@H](CC(N)=O)NC(=O)[C@H](Cc1ccc(O)cc1)NC(=O)[C@H](CCCCN)NC(=O)[C@@H](N)CCCCN)C(=O)N[C@@H](CO)C(=O)N[C@@H](Cc1ccccc1)C(=O)O [3102.1179] (H-KKYNNDKSF-OH)
IC50: 0.078 nM

CC[C@H](C)[C@H](N)C(=O)N[C@@H](CCC(N)=O)C(=O)N[C@@H](Cc1c[nH]cn1)C(=O)N[C@@H](CC(N)=O)C(=O)N[C@@H](Cc1ccccc1)C(=O)N[C@H](C(=O)N[C@@H](CCC(N)=O)C(=O)N[C@H](C(=O)N[C@@H](C)C(=O)O)[C@@H](C)CC)[C@@H](C)O [3102.1181] (H-IQHNFTQIA-OH)
IC50: 0.25 nM

CSCC[C@H](NC(=O)[C@H](C)NC(=O)[C@H](CCCCN)NC(=O)[C@@H](N)Cc1ccccc1)C(=O)N[C@@H](Cc1c[nH]c2ccccc12)C(=O)N[C@@H](CCCCN)C(=O)N[C@@H](Cc1ccc(O)cc1)C(=O)N1CCC[C@H]1C(=O)N[C@@H](Cc1ccccc1)C(=O)O [3102.1182] (H-FKAMWKYPF-OH)
IC50: 0.11 nM

CSCC[C@H](NC(=O)[C@@H](N)CCSC)C(=O)N[C@H](C(=O)N[C@@H](CO)C(=O)N[C@H](C(=O)N[C@@H](CCC(=O)O)C(=O)N[C@@H](CC(N)=O)C(=O)N[C@@H](CC(N)=O)C(=O)N[C@@H](CC(C)C)C(=O)O)[C@@H](C)O)C(C)C [3102.1183] (H-MMVSTENNL-OH)
IC50: 11 nM

CSCC[C@H](NC(=O)[C@H](CO)NC(=O)[C@H](Cc1ccccc1)NC(=O)[C@H](CC(N)=O)NC(=O)[C@@H](NC(=O)[C@H](CCSC)NC(=O)[C@@H](N)Cc1ccccc1)[C@@H](C)O)C(=O)N[C@H](C(=O)N[C@@H](Cc1ccc(O)cc1)C(=O)O)C(C)C [3102.1186] (H-FMTNFSMVY-OH)
IC50: 2.3 nM

CC[C@H](C)[C@H](NC(=O)[C@H](Cc1c[nH]cn1)NC(=O)[C@@H](NC(=O)[C@H](Cc1ccc(O)cc1)NC(=O)[C@H](CCC(N)=O)NC(=O)[C@@H](N)CC(C)C)C(C)C)C(=O)N[C@@H](CC(N)=O)C(=O)N[C@@H](CCC(=O)O)C(=O)N[C@@H](CC(C)C)C(=O)O [3102.1187] (H-LQYVHINEL-OH)
IC50: 3.7 nM

CSCC[C@H](NC(=O)[C@@H](N)CCCCN)C(=O)N[C@H](C(=O)N[C@@H](CCCNC(=N)N)C(=O)N[C@H](C(=O)N[C@@H](Cc1ccccc1)C(=O)N[C@@H](CC(N)=O)C(=O)N[C@@H](CCCCN)C(=O)N[C@@H](Cc1ccccc1)C(=O)O)C(C)C)[C@@H](C)O [3102.1188] (H-KMTRVFNKF-OH)
IC50: 0.43 nM

CC(C)C[C@H](NC(=O)[C@H](CC(C)C)NC(=O)[C@@H](NC(=O)[C@H](CO)NC(=O)[C@H](CO)NC(=O)[C@H](CCCCN)NC(=O)[C@@H](N)CCCCN)[C@@H](C)O)C(=O)N[C@H](C(=O)N[C@@H](Cc1ccccc1)C(=O)O)[C@@H](C)O [3102.1189] (H-KKSSTLLTF-OH)
IC50: 0.36 nM

CC(C)[C@H](NC(=O)[C@@H](NC(=O)[C@H](CC(=O)O)NC(=O)[C@H](CO)NC(=O)[C@H](CCC(N)=O)NC(=O)[C@H](CO)NC(=O)[C@H](CCCCN)NC(=O)[C@H](C)N)[C@@H](C)O)C(=O)N[C@@H](Cc1ccccc1)C(=O)O [3102.1191] (H-AKSQSDTVF-OH)
IC50: 0.16 nM

CC[C@H](C)[C@H](NC(=O)[C@H](Cc1ccc(O)cc1)NC(=O)[C@H](CO)NC(=O)[C@@H]1CCCN1C(=O)[C@H](Cc1ccc(O)cc1)NC(=O)[C@H](CCSC)NC(=O)[C@@H](N)CO)C(=O)N[C@@H](CCC(=O)O)C(=O)N[C@@H](Cc1ccccc1)C(=O)O [3102.1196] (H-SMYPSYIEF-OH)
IC50: 0.11 nM

CC[C@H](C)[C@H](N)C(=O)N[C@@H](CCCCN)C(=O)N[C@@H](Cc1ccccc1)C(=O)N[C@@H](C)C(=O)N[C@@H](C)C(=O)NCC(=O)N[C@H](C(=O)N[C@H](C(=O)N[C@H](C(=O)O)[C@@H](C)CC)[C@@H](C)CC)[C@@H](C)CC [3102.1198] (H-IKFAAGIII-OH)
IC50: 16 nM

CC[C@H](C)[C@H](NC(=O)[C@@H](NC(=O)[C@H](Cc1ccccc1)NC(=O)[C@H](CCSC)NC(=O)[C@@H](NC(=O)[C@H](CCCCN)NC(=O)[C@@H](N)[C@@H](C)O)C(C)C)C(C)C)C(=O)N[C@@H](CCCNC(=N)N)C(=O)N[C@@H](Cc1ccccc1)C(=O)O [3102.1199] (H-TKVMFVIRF-OH)
IC50: 31 nM

CC[C@H](C)[C@H](NC(=O)[C@H](CCCCN)NC(=O)[C@@H](N)CCSC)C(=O)N[C@H](C(=O)N[C@@H](CCCNC(=N)N)C(=O)N1CCC[C@H]1C(=O)N[C@@H](CCCNC(=N)N)C(=O)N[C@@H](Cc1c[nH]cn1)C(=O)N[C@@H](Cc1ccccc1)C(=O)O)[C@@H](C)O [3102.1200] (H-MKITRPRHF-OH)
IC50: 1 nM
